Data published in patent US11576382B2, “Naphthalene isoxazoline compounds for controlling invertebrate pests” (FMC Corporation, priority 2018, dated 2023).

Tests used:
Assay type in all cases: in vivo
[1] = system: potato leafhopper (Empoasca fabae (Harris)); assay: Test D: control of potato leafhopper through contact and/or systemic means; settings: 144 h
Method: (§1) Formulation and Spray Methodology for Tests A-H
(§2) Test compounds were formulated using a solution containing 10% acetone, 90% water and 300 ppm Activator 90® non-ionic surfactant (Loveland Products, Loveland, Colo., USA). The formulated compounds were applied in 1 mL of liquid through an atomizer nozzle positioned 1.27 cm (0.5 inches) above the top of each test unit. Test compounds were sprayed at the rates indicated, and each test was replicated three times.
For evaluating control of potato leafhopper (Empoasca fabae (Harris)) through contact and/or systemic means, the test unit consisted of a small open container with a 5-6-day-old Soleil bean plant (primary leaves emerged) inside. White sand was added to the top of the soil, and one of the primary leaves was excised prior to application of the test compound.
Test compounds were formulated and sprayed at 250, 50, 10 and 2 ppm. After spraying of the formulated test compound, the test units were allowed to dry for 1 hour before they were post-infested with 5 potato leafhoppers (18-to-21-day-old adults). A black, screened cap was placed on the top of the test unit, and the test units were held for 6 days in a growth chamber at 20° C. and 70% relative humidity. Each test unit was then visually assessed for insect mortality.

[2] = system: sweetpotato whitefly (Bemisia tabaci (Gennadius)); assay: Test G: control of sweetpotato whitefly through contact and/or systemic means; settings: in Gossypium hirsutum, 312 h
Method: as §1, §2
For evaluating control of the sweetpotato whitefly (Bemisia tabaci (Gennadius)) through contact and/or systemic means, the test unit consisted of a small open container with a 12-14-day-old cotton plant inside. Prior to the spray application, both cotyledons were removed from the plant, leaving one true leaf for the assay. Adult whiteflies were allowed to lay eggs on the plant and then were removed from the test unit. Cotton plants infested with at least 15 eggs were submitted to the test for spraying.
Test compounds were formulated and sprayed at 250, 50, and 10 ppm. After spraying, the test units were allowed to dry for 1 hour. The cylinders were then removed, and the units were taken to a growth chamber and held for 13 days at 28° C. and 50-70% relative humidity. Each test unit was then visually assessed for insect mortality.

[3] = system: cotton melon aphid (Aphis gossypii (Glover)); assay: Test F: control of cotton melon aphid through contact and/or systemic means; settings: 144 h
Method: as §1, §2
For evaluating control of cotton melon aphid (Aphis gossypii (Glover)) through contact and/or systemic means, the test unit consisted of a small open container with a 5-day-old okra plant inside. This was pre-infested with 30-40 insects on a piece of leaf according to the cut-leaf method, and the soil of the test unit was covered with a layer of sand.
Test compounds were formulated and sprayed at 250, 50 and 10 ppm. After spraying, the test units were maintained in a growth chamber for 6 days at 19° C. and 70% relative humidity. Each test unit was then visually assessed for insect mortality.

[4] = system: green peach aphid (Myzus persicae (Sulzer)); assay: Test E: control of green peach aphid through contact and/or systemic means; settings: in Raphanus sativus, 144 h
Method: as §1, §2
For evaluating control of green peach aphid (Myzus persicae (Sulzer)) through contact and/or systemic means, the test unit consisted of a small open container with a 12-15-day-old radish plant inside. This was pre-infested by placing on a leaf of the test plant 30-40 aphids on a piece of leaf excised from a culture plant (cut-leaf method). The aphids moved onto the test plant as the leaf piece desiccated. After pre-infestation, the soil of the test unit was covered with a layer of sand.
Test compounds were formulated and sprayed at 250, 50 and 10 ppm. After spraying of the formulated test compound, each test unit was allowed to dry for 1 hour and then a black, screened cap was placed on top. The test units were held for 6 days in a growth chamber at 19-21° C. and 50-70% relative humidity. Each test unit was then visually assessed for insect mortality.

O=C(NCc1ccccn1)c1ccc(C2=NOC(c3cc(Cl)c(F)c(Cl)c3)(C(F)(F)F)C2)c2ccccc12 (stereo not drawn) [Compound 15, 4-[5-(3,5-dichloro-4-fluorophenyl)-4,5-dihydro-5-(trifluoromethyl)-3-isoxazolyl]-N-(2-pyridinylmethyl)-1-naphthalenecarboxamide]
≥ 80%: mortality at 2 ppm [1] | mortality at 10 ppm [1] | mortality at 50 ppm [1]
≥ 70%: mortality at 50 ppm [2]

COC(=O)CNC(=O)c1ccc(C2=NOC(c3cc(Cl)c(F)c(Cl)c3)(C(F)(F)F)C2)c2ccccc12 (stereo not drawn) [Compound 35, N-[[4-[5-(3,5-dichloro-4-fluorophenyl)-4,5-dihydro-5-(trifluoromethyl)-3-isoxazolyl]-1-naphthalenyl]carbonyl]glycine methyl ester]
≥ 80%: mortality at 50 ppm [3] | mortality at 250 ppm [3] | mortality at 50 ppm [4] | mortality at 250 ppm [4] | mortality at 250 ppm [1]

C[C@@H](NC(=O)c1ccc(C2=NOC(c3cc(Cl)c(F)c(Cl)c3)(C(F)(F)F)C2)c2ccccc12)C(N)=O (stereo partly drawn) [Compound 1, N-[(1R)-2-amino-1-methyl-2-oxoethyl]-4-[5-(3,5-dichloro-4-fluorophenyl)-4,5-dihydro-5-(trifluoromethyl)-3-isoxazolyl]-1-naphthalenecarboxamide]
≥ 80%: mortality at 250 ppm [3] | mortality at 50 ppm [1] | mortality at 250 ppm [1]

CON=CNC(=O)c1ccc(C2=NOC(c3cc(Cl)c(F)c(Cl)c3)(C(F)(F)F)C2)c2ccccc12 (stereo not drawn) [Compound 33, 4-[5-(3,5-dichloro-4-fluorophenyl)-4,5-dihydro-5-(trifluoromethyl)-3-isoxazolyl]-N-[(methoxyimino)methyl]-1-naphthalenecarboxamide]
≥ 80%: mortality at 10 ppm [3] | mortality at 50 ppm [3] | mortality at 50 ppm [4] | mortality at 2 ppm [1] | mortality at 10 ppm [1] | mortality at 50 ppm [1]
≥ 70%: mortality at 2 ppm [2] | mortality at 10 ppm [2] | mortality at 50 ppm [2]
